Measured values reported in US7687491B2, “Heterocyclic compound” (Daiichi Sankyo Company, Limited, priority 2005, dated 2010).
Counter-ions that a name gives are not always drawn.

Tested on: host-versus-graft reaction (HvGR) in the rat
Assay: Inhibitory activity against host-versus-graft reaction (HvGR) in the rat (popliteal lymph node weight)
Type: in vivo
Conditions: po, 1 mg/kg orally once daily for 4 successive days, Lewis rats injected with WKAH/Hkm spleen cells, weight of popliteal lymph nodes vs control group, read-out: Inhibition Rate (%, 1 mg/kg of administration)
Source text: Determination of Inhibitory Activities of the Compound Against Host-Versus-graft Reaction (HvGR) in the Rat
(1) Two strains of rats [Lewis rats (male, 6 weeks of age, Charles River Japan Inc.) and WKAH/Hkm rats (male, 7 weeks of age, Japan SLC Inc.)] were used. Five rats (host) per group were used.
Spleen cells were isolated from the spleens of WKAH/Hkm rats or Lewis rats and floated in RPMI1640 medium (Life Technologies Inc.) at a concentration of 1×10^8 cells/ml. A 0.1-ml aliquot of the medium containing the free-floating spleen cells (1×10^7 cells) of WKAH/Hkm rats or Lewis rats was then intradermally injected into the bilateral foot pads of the hindlimbs of both sides of Lewis rats.
(3) Administration of Test Compound
The test compound was suspended in 0.5% tragacantha solution. The suspended solution of a compound of the present invention (5 ml/kg of body weight of the rat) was orally administered to rats of the drug-treated group (the Lewis rats in which spleen cells of WKAH/Hkm rats were injected and the test compound was administered) once daily for 4 successive days starting on the day of the spleen cell injection. Furthermore, tragacantha solution (0.5%) instead of the test substance was orally administered to rats in the “same strain group” (Lewis rats injected with spleen cells of Lewis rats) and the control group (Lewis rats injected with spleen cells of WKAH/Hkm rats and not treated with the test compound).
(4) Determination of Inhibitory Activity Against HvGR
The average weight of the popliteal lymph nodes of the same strain rats was subtracted from the individual weights of the popliteal lymph nodes of individual rats (“weight of the popliteal lymph nodes after HvGR-induction”). The inhibitory activity of a compound was calculated from the “weight of the popliteal lymph nodes after HvGR induction” of individual rats in the drug-treated group versus the average “weight of the popliteal lymph nodes after HvGR induction” in the control group.

| Compound | inhibition in vivo at 1 mg/kg [%] |
| --- | --- |
| CCc1cc(CN2CC(C(=O)O)C2)sc1-c1noc(-c2ccc(Oc3ccccc3F)cc2)n1 [Example 10, 1-[(4-Ethyl-5-{5-[4-(2-fluorophenoxy)phenyl]-1,2,4-oxadiazol-3-yl}-2-thienyl)methyl]azetidine-3-carboxylic acid 1/2 oxalate] | 61.8 |
| Cc1cc(CN2CC(C(=O)O)C2)sc1-c1noc(-c2ccc(Oc3ccccc3)c(F)c2)n1 [Example 11, 1-({5-[5-(3-Fluoro-4-phenoxyphenyl)-1,2,4-oxadiazol-3-yl]-4-methyl-2-thienyl}methyl)azetidine-3-carboxylic acid] | 51.6 |
| Cc1cc(CN2CC(C(=O)O)C2)sc1-c1noc(-c2ccc(Oc3ccccc3)cc2)n1 [Example 12, 1-({4-Methyl-5-[5-(4-phenoxyphenyl)-1,2,4-oxadiazol-3-yl]-2-thienyl}methyl)azetidine-3-carboxylic acid] | 55.4 |
| CCc1cc(CN2CC(C(=O)O)C2)sc1-c1noc(-c2ccc(Oc3ccccc3)cc2)n1 [Example 13, 1-({4-Ethyl-5-[5-(4-phenoxyphenyl)-1,2,4-oxadiazol-3-yl]-2-thienyl}methyl)azetidine-3-carboxylic acid] | 61.3 |
| CCc1cc(CN2CC(C(=O)O)C2)sc1-c1noc(-c2ccc(Oc3ccccc3)c(F)c2)n1 [Example 14, 1-({4-Ethyl-5-[5-(3-fluoro-4-phenoxyphenyl)-1,2,4-oxadiazol-3-yl]-2-thienyl}methyl)azetidine-3-carboxylic acid] | 65.6 |
| CCc1cc(CN2CC(C(=O)O)C2)sc1-c1noc(-c2ccc(Oc3cccc(F)c3)cc2)n1 [Example 17, 1-[(4-Ethyl-5-{5-[4-(3-fluorophenoxy)phenyl]-1,2,4-oxadiazol-3-yl}-2-thienyl)methyl]azetidine-3-carboxylic acid] | 65 |
| CC(C)Cc1ccc(-c2nc(-c3ccc(CN4CC(C(=O)O)C4)nc3)no2)cc1Cl [Example 26, 1-({5-[5-(3-Chloro-4-isobutylphenyl)-1,2,4-oxadiazol-3-yl]pyridin-2-yl}methyl)azetidine-3-carboxylic acid] | 80 |
| Cc1cc(-c2nc(-c3ccc(CN4CC(C(=O)O)C4)nc3C)no2)ccc1CC(C)C [Example 27, 1-({5-[5-(4-Isobutyl-3-methylphenyl)-1,2,4-oxadiazol-3-yl]-6-methylpyridin-2-yl}methyl)azetidine-3-carboxylic acid 1/2 oxalate] | 80.6 |
| Cc1cc(-c2nc(-c3ccc(CN4CC(C(=O)O)C4)nc3)no2)ccc1CC(C)C [Example 28, 1-({5-[5-(4-Isobutyl-3-methylphenyl)-1,2,4-oxadiazol-3-yl]pyridin-2-yl}methyl)azetidine-3-carboxylic acid 1/2 oxalate] | 77.5 |
| CCc1nc(CN2CC(C(=O)O)C2)ccc1-c1noc(-c2ccc(CC(C)C)c(C)c2)n1 [Example 29, 1-({6-Ethyl-5-[5-(4-isobutyl-3-methylphenyl)-1,2,4-oxadiazol-3-yl]pyridin-2-yl}methyl)azetidine-3-carboxylic acid] | 83.5 |
| CC[C@H](C)Oc1ccc(-c2nc(-c3ccc(CN4CC(C(=O)O)C4)cc3)no2)cc1 [Reference Compound 1, reference compound] | -15.5 |
| O=C(O)C1CN(Cc2ccc(-c3noc(-c4ccc(OC5CCC5)cc4)n3)cc2)C1 [Reference Compound 2, reference compound] | -19 |
